pIC50: −log10 of the molar value. In brackets after ≈: the same amount, converted by molar mass. Like-named read-outs stand apart in the source and are kept apart here. Marks after values point to notes of the source that are not given here.
Columns and labels:
[1] = system: BO (T61) human mammary carcinomas; assay: In vivo activity against implanted BO tumour; parameters: species or system NMRI-nu/nu female mice; conditions: i.p., qd 27,34,41
A431 cells = assay: In vitro growth assay; type: cell-based; conditions: range of concentrations 0.1nM-10µM
Description: No effect was observed, for example, on the growth of A431 cells as a result of exposure to CJM 126 over a range of concentrations (0.1nM-10µM).
In carrying out the above in vitro studies, the method used for conducting the cytotoxicity assays was generally substantially as follows: • Cells were maintained in a continuous logarithmic culture in Dulbecco's medium supplemented with 10% fetal calf serum and penicillin (100 IU/ml) and streptomycin (100 µg/ml). The cells were mildly trypsinized for passage and for use in assays. On day zero, 100µl of trypsinized tumour cells (1 x 10^4/ml) were plated in the wells of 96-well flat-bottom microtiter plates. […] On day two 50µl of the highest drug concentration was added to the wells of column 12 and from there serially diluted 3-fold to column 1 by serial transfer of 50µl using an 8-channel micropipette. The final volume of column 1 was adjusted to 100µl. No additions were made to the wells of rows A and B, which served as controls. The plates were further incubated for 5 days at 37°C and 5% CO2 in air. […] The plates were kept at 4°C overnight before reading on an inverted microscope equipped with an automated scanning stage. Fluorescence intensity was measured in arbitrary units by a photomultiplier. […]

[2] = system: NCI (National Cancer Institute, U.S.A.) panel of human tumour cell lines; assay: NCI tumour cell line panel test; type: cell-based; conditions: panel contains no breast cancer cell lines
Aqueous solubility = type: physicochemical; conditions: water
Description: The latter was first obtained (as yellow crystals, m.p. 229-231°C, crystallised from methanol or dimethyl formamide) either via Route C (71% yield) from 2-aminothiophenol and 4-nitrobenzoyl chloride, or via Route D (10% yield) from the corresponding thiobenzanilide and potassium ferricyanide.

41M/CisP = assay: In vitro cytotoxicity assay; type: cell-based; conditions: Homo sapiens; 2nd series of experiments
Excerpt: (§1) This is illustrated in Tables 1 and 2 at the end of the present description which show in vitro test results obtained in various sets of experiments for the cytotoxic activity of this compound CJM 126 against a range of human tumour cell lines, expressed in terms of IC50 values (concentration or dosage required to reduce cell growth or proliferation by 50%) calculated from dose-effect curves plotted for cultures of the cells in question.
(§2) In carrying out the above in vitro studies, the method used for conducting the cytotoxicity assays was generally substantially as follows: • Cells were maintained in a continuous logarithmic culture in Dulbecco's medium supplemented with 10% fetal calf serum and penicillin (100 IU/ml) and streptomycin (100 µg/ml). The cells were mildly trypsinized for passage and for use in assays. On day zero, 100µl of trypsinized tumour cells (1 x 10^4/ml) were plated in the wells of 96-well flat-bottom microtiter plates. […] On day two 50µl of the highest drug concentration was added to the wells of column 12 and from there serially diluted 3-fold to column 1 by serial transfer of 50µl using an 8-channel micropipette. The final volume of column 1 was adjusted to 100µl. No additions were made to the wells of rows A and B, which served as controls. The plates were further incubated for 5 days at 37°C and 5% CO2 in air. Each compound was tested in duplicate. • On day 7 the test was terminated by the addition of 100µl saline containing 0.002% w/v propidium iodide (Sigma), 0.3% drawing ink (Staedtler "Marsmatic 745" - Trade Mark) and 0.5% Triton X-100. The plates were kept at 4°C overnight before reading on an inverted microscope equipped with an automated scanning stage. Fluorescence intensity was measured in arbitrary units by a photomultiplier. An HP-87 computer controlled the movement of the stage and also collected and processed the data from the multiplier. • For each compound tested a dose-response curve was obtained and the IC50 value (the drug concentration at 50% inhibition of cell growth) was calculated.

WiDr colon carcinoma = assay: In vitro cytotoxicity assay; type: cell-based; conditions: Homo sapiens
Excerpt: as §1, §2

MCF 7-B (ER+) = assay: In vitro cytotoxicity assay; type: cell-based; conditions: Homo sapiens; 2nd series of experiments
Excerpt: as §1, §2

CH 1 ovarian carcinoma = assay: In vitro cytotoxicity assay; type: cell-based; conditions: Homo sapiens; 2nd series of experiments
Excerpt: as §1, §2

SKOV-3 ovarian carcinoma = assay: In vitro cytotoxicity assay; type: cell-based; conditions: Homo sapiens, SK-OV-3; 2nd series of experiments
Excerpt: as §1, §2

CH 1/CisR = assay: In vitro cytotoxicity assay; type: cell-based; conditions: Homo sapiens, CH1cisR; 2nd series of experiments
Excerpt: as §1, §2

MCF 7-T (ER-) = assay: In vitro cytotoxicity assay; type: cell-based; conditions: Homo sapiens; 2nd series of experiments
Excerpt: as §1, §2

[3] = system: MDA 231 mammary (EGFR+/erbB3+); assay: In vitro cytotoxicity assay; type: cell-based; conditions: Homo sapiens, MDA-MB-231
Excerpt: as §1, §2

A2780/CisR = assay: In vitro cytotoxicity assay; type: cell-based; conditions: Homo sapiens, A2780cisR; 2nd series of experiments
Excerpt: as §1, §2

41M ovarian carcinoma = assay: In vitro cytotoxicity assay; type: cell-based; conditions: Homo sapiens; 2nd series of experiments
Excerpt: as §1, §2

HX/62 ovarian carcinoma = assay: In vitro cytotoxicity assay; type: cell-based; conditions: Homo sapiens, HX62; 2nd series of experiments
Excerpt: as §1, §2

IGR37 melanoma = assay: In vitro cytotoxicity assay; type: cell-based; conditions: Homo sapiens, IGR-37
Excerpt: as §1, §2

T47D mammary (ER-) = assay: In vitro cytotoxicity assay; type: cell-based; conditions: Homo sapiens, 2nd series of experiments
Excerpt: as §1, §2

HT29 colon carcinoma = assay: In vitro cytotoxicity assay; type: cell-based; conditions: Homo sapiens, HT-29
Excerpt: as §1, §2

ZR 75 mammary (ER+) = assay: In vitro cytotoxicity assay; type: cell-based; conditions: Homo sapiens, ZR75
Excerpt: as §1, §2

SKBR3 mammary (ER-) = assay: In vitro cytotoxicity assay; type: cell-based; conditions: Homo sapiens, SK-BR-3
Excerpt: as §1, §2

T24 bladder carcinoma = assay: In vitro cytotoxicity assay; type: cell-based; conditions: Homo sapiens
Excerpt: as §1, §2

A204 rhabdomyosarcoma = assay: In vitro cytotoxicity assay; type: cell-based; conditions: Homo sapiens
Excerpt: as §1, §2

MCF 7-ADR mammary = assay: In vitro cytotoxicity and growth stimulation assay; type: cell-based, human
Excerpt: as §1, §2

[4] = 2nd series of experiments, read-out: IC50

Nc1ccc(-c2nc3ccccc3s2)cc1 [CJM 126, 2-(4-aminophenyl)benzothiazole]
BWC ([1]; 1 mg/kg/day): -5 | Relative tumour volume (T/C%) ([1]; 1 mg/kg/day, d33): 173% | Relative tumour volume (T/C%) ([1]; 1 mg/kg/day, d41): 72% | Relative tumour volume (T/C%) ([1]; 1 mg/kg/day, d47): 25* % | Relative tumour volume (T/C%) ([1]; 1 mg/kg/day, d55): 67% | Relative tumour volume (T/C%) ([1]; 1 mg/kg/day, d61): 41* % | BWC ([1]; 10 mg/kg/day): -4 | Relative tumour volume (T/C%) ([1]; 10 mg/kg/day, d33): 107% | Relative tumour volume (T/C%) ([1]; 10 mg/kg/day, d41): 74% | Relative tumour volume (T/C%) ([1]; 10 mg/kg/day, d47): 55% | Relative tumour volume (T/C%) ([1]; 10 mg/kg/day, d55): 70% | Relative tumour volume (T/C%) ([1]; 10 mg/kg/day, d61): 52% | BWC ([1]; 100 mg/kg/day): -7 | Relative tumour volume (T/C%) ([1]; 100 mg/kg/day, d33): 137% | Relative tumour volume (T/C%) ([1]; 100 mg/kg/day, d41): 77% | Relative tumour volume (T/C%) ([1]; 100 mg/kg/day, d47): 87% | Relative tumour volume (T/C%) ([1]; 100 mg/kg/day, d55): 68% | Relative tumour volume (T/C%) ([1]; 100 mg/kg/day, d61): 52% | effect on growth (A431 cells): No effect | toxicity in panel [2]: essentially non-toxic | solubility (Aqueous solubility): ~3.8 µg/mL (≈ 16.8 µM) | pIC50 (41M/CisP): 4.40 | IC50 (WiDr colon carcinoma; 1st series of experiments): 6.01 µg/mL | pIC50 (WiDr colon carcinoma; 2nd series of experiments): 4.59 | pIC50 (MCF 7-B (ER+)): 4.21 | pIC50 (CH 1 ovarian carcinoma): 4.66 | pIC50 (SKOV-3 ovarian carcinoma): 4.19 | pIC50 (CH 1/CisR): 4.48 | pIC50 (MCF 7-T (ER-)): 4.89 | pIC50 [3, 4]: 7.77 | pIC50 ([3]; MDA 231, read-out: estimated IC50): ~7.76 | pIC50 (A2780/CisR): 4.43 | pIC50 (41M ovarian carcinoma): 4.44 | pIC50 (HX/62 ovarian carcinoma): 3.92 | IC50 (IGR37 melanoma; 1st series of experiments): 24 µg/mL | pIC50 (IGR37 melanoma; 2nd series of experiments): 3.97 | pIC50 (T47D mammary (ER-)): 4.36 | IC50 (HT29 colon carcinoma; 1st series of experiments): 7.57 µg/mL | pIC50 (HT29 colon carcinoma; 2nd series of experiments): 4.48 | pIC50 (ZR 75 mammary (ER+); [4]): 7.55 | pIC50 (ZR 75 mammary (ER+); ZR 75, read-out: estimated IC50): ~7.61 | pIC50 (SKBR3 mammary (ER-); [4]): 7.59 | pIC50 (SKBR3 mammary (ER-); SKBR3, read-out: estimated IC50): ~7.59 | IC50 (T24 bladder carcinoma; 1st series of experiments): 16.9 µg/mL | pIC50 (T24 bladder carcinoma; 2nd series of experiments): 4.12 | IC50 (A204 rhabdomyosarcoma; 1st series of experiments): 5.94 µg/mL | pIC50 (A204 rhabdomyosarcoma; 2nd series of experiments): 4.59 | stimulation (MCF 7-ADR mammary; 2nd series of experiments, concentration giving stimulation): stimulation > 1µM | effect on cell growth (MCF 7-ADR mammary; 3 and 10µM, seeding density 2.5 x 10^2 cells per well): induced proliferation
